Reference: the supplement of paper PMC10307832

Columns and labels:
Assay in all cases: relative viability (nuclei count vs DMSO), 5 days (fraction); higher = more cells survive
[1] = compound: CC[C@H](CO)Nc1nc(NCc2ccccc2)c2ncn(C(C)C)c2n1 [Seliciclib]
Summary of the method: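 Only plates meeting two conditions passed: control CV below 25% and at least one doubling. Lung cancer cell lines, kept overnight at 37 °C in 1536-well plates, were pinned with five library-drug doses (not always all listed) √10 apart on vehicle-anchored plates and grown 5 days without medium change. A one-step fix, permeabilisation and Hoechst stain preceded 4× imaging and MetaXpress nuclear counting. Viability equals treated-well nuclei divided by vehicle-well nuclei, as the median over plates.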

[2] = compound: CC[C@H](CO)Nc1nc(NCc2ccccc2)c2ncn(C(C)C)c2n1 [Seliciclib] + CCNC(=O)c1noc(-c2cc(C(C)C)c(O)cc2O)c1-c1ccc(CN2CCOCC2)cc1 [Luminespib] (partner 0.01 µM)
Summary of the method: (§1)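 Relative viability is defined as nuclei in treated wells over nuclei in vehicle wells. Duplicate plates were run and medians reported. Lung cancer cell lines in 1536-well plates were dosed by pin tool one day after seeding, with one drug or with a fixed anchor-drug dose plus five library-drug doses (not always all listed) in √10 steps, and nuclei were counted after 5 days.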

[3] = compound: CC[C@H](CO)Nc1nc(NCc2ccccc2)c2ncn(C(C)C)c2n1 [Seliciclib] + COc1cc2c(Oc3ccc(NC(=O)C4(C(=O)Nc5ccc(F)cc5)CC4)cc3F)ccnc2cc1OCCCN1CCOCC1 [Foretinib] (partner 0.25 µM)
Summary of the method: as §1

[4] = compound: CC[C@H](CO)Nc1nc(NCc2ccccc2)c2ncn(C(C)C)c2n1 [Seliciclib] + COc1cccc2cc(-c3nc([C@H]4CC[C@H](C(=O)O)CC4)n4ncnc(N)c34)[nH]c12 [OSI-027] (partner 0.5 µM)
Summary of the method: as §1

[5] = compound: CC[C@H](CO)Nc1nc(NCc2ccccc2)c2ncn(C(C)C)c2n1 [Seliciclib] + Cc1cc(Nc2cc(N3CCN(C)CC3)nc(Sc3ccc(NC(=O)C4CC4)cc3)n2)n[nH]1 [Tozasertib] (partner 0.1 µM)
Summary of the method: as §1

[6] = compound: CC[C@H](CO)Nc1nc(NCc2ccccc2)c2ncn(C(C)C)c2n1 [Seliciclib] + Cc1nc(Nc2ncc(C(=O)Nc3c(C)cccc3Cl)s2)cc(N2CCN(CCO)CC2)n1 [Dasatinib] (partner 0.075 µM)
Summary of the method: as §1

[7] = compound: CC[C@H](CO)Nc1nc(NCc2ccccc2)c2ncn(C(C)C)c2n1 [Seliciclib] + N=C(N)NC(=N)NCCc1ccccc1 [Phenformin] (partner 250 µM)
Summary of the method: as §1

[8] = compound: CC[C@H](CO)Nc1nc(NCc2ccccc2)c2ncn(C(C)C)c2n1 [Seliciclib] + CC(=O)Nc1cccc(-n2c(=O)n(C3CC3)c(=O)c3c(Nc4ccc(I)cc4F)n(C)c(=O)c(C)c32)c1 [Trametinib] (partner 0.02 µM)
Summary of the method: as §1

[9] = compound: CC[C@H](CO)Nc1nc(NCc2ccccc2)c2ncn(C(C)C)c2n1 [Seliciclib] + CC(=O)c1c(C)c2cnc(Nc3ccc(N4CCNCC4)cn3)nc2n(C2CCCC2)c1=O [Palbociclib] (partner 0.5 µM)
Summary of the method: as §1

[10] = compound: CC[C@H](CO)Nc1nc(NCc2ccccc2)c2ncn(C(C)C)c2n1 [Seliciclib] + NC(=O)Nc1cc(-c2cccc(F)c2)sc1C(=O)N[C@H]1CCCNC1 [AZD7762] (partner 0.2 µM)
Summary of the method: as §1

[11] = compound: CC[C@H](CO)Nc1nc(NCc2ccccc2)c2ncn(C(C)C)c2n1 [Seliciclib] + Nc1nc2[nH]cc(CCc3ccc(C(=O)N[C@@H](CCC(=O)O)C(=O)O)cc3)c2c(=O)[nH]1 [Pemetrexed] (partner 0.2 µM)
Summary of the method: as §1

[12] = compound: CC[C@H](CO)Nc1nc(NCc2ccccc2)c2ncn(C(C)C)c2n1 [Seliciclib] + Nc1ncn([C@H]2C[C@H](O)[C@@H](CO)O2)c(=O)n1 [Decitabine] (partner 2 µM)
Summary of the method: as §1

[13] = compound: CC[C@H](CO)Nc1nc(NCc2ccccc2)c2ncn(C(C)C)c2n1 [Seliciclib] + O=C(CCCCCCC(=O)Nc1ccccc1)NO [Vorinostat] (partner 1 µM)
Summary of the method: as §1

[14] = compound: CC[C@H](CO)Nc1nc(NCc2ccccc2)c2ncn(C(C)C)c2n1 [Seliciclib] + O=C(c1cc(Cc2n[nH]c(=O)c3ccccc23)ccc1F)N1CCN(C(=O)C2CC2)CC1 [Olaparib] (partner 8 µM)
Summary of the method: as §1

In the case of NCI-H1623, the relative viability ([1]; 0.08 µM) is reported as 0.968, the relative viability ([1]; 0.253 µM) is reported as 0.867 and the relative viability ([1]; 0.8 µM) is reported as 0.868. The relative viability ([1]; 2.53 µM) was 1.01, the relative viability ([1]; 8 µM) was 0.81 and the relative viability ([2]; first compound 0.08 µM) was 0.66. For the same cell line, the relative viability ([2]; first compound 0.253 µM) was 0.367, the relative viability ([2]; first compound 0.8 µM) was 0.568 and the relative viability ([2]; first compound 2.53 µM) was 0.558. It also gave a relative viability ([2]; first compound 8 µM) of 0.512, a relative viability ([3]; first compound 0.08 µM) of 0.91 and a relative viability ([3]; first compound 0.253 µM) of 0.773. The relative viability ([3]; first compound 0.8 µM) was 0.716, the relative viability ([3]; first compound 2.53 µM) was 0.754 and the relative viability ([3]; first compound 8 µM) was 0.864. For the same cell line, the relative viability ([4]; first compound 0.08 µM) was 0.425, the relative viability ([4]; first compound 0.253 µM) was 0.449 and the relative viability ([4]; first compound 0.8 µM) was 0.396. The relative viability ([4]; first compound 2.53 µM) was 0.415, the relative viability ([4]; first compound 8 µM) was 0.415 and the relative viability ([5]; first compound 0.08 µM) was 0.414. The relative viability ([5]; first compound 0.253 µM) was 0.317, the relative viability ([5]; first compound 0.8 µM) was 0.363 and the relative viability ([5]; first compound 2.53 µM) was 0.418. For the same cell line, the relative viability ([5]; first compound 8 µM) was 0.414, the relative viability ([6]; first compound 0.08 µM) was 0.562 and the relative viability ([6]; first compound 0.253 µM) was 0.479. The relative viability ([6]; first compound 0.8 µM) was 0.498, the relative viability ([6]; first compound 2.53 µM) was 0.53 and the relative viability ([6]; first compound 8 µM) was 0.603. The relative viability ([7]; first compound 0.08 µM) was 0.609, the relative viability ([7]; first compound 0.253 µM) was 0.545 and the relative viability ([7]; first compound 0.8 µM) was 0.502. For the same cell line, the relative viability ([7]; first compound 2.53 µM) was 0.507 and the relative viability ([7]; first compound 8 µM) was 0.538.
NCI-H2342 was tested, and the relative viability ([1]; 0.08 µM) was 0.967, the relative viability ([1]; 0.253 µM) was 0.74 and the relative viability ([1]; 0.8 µM) was 0.947. For the same cell line, the relative viability ([1]; 2.53 µM) was 0.842, the relative viability ([1]; 8 µM) was 0.905 and the relative viability ([8]; first compound 0.08 µM) was 0.705. For the same cell line, the relative viability ([8]; first compound 0.253 µM) was 0.598, the relative viability ([8]; first compound 0.8 µM) was 0.865 and the relative viability ([8]; first compound 2.53 µM) was 0.752. For the same cell line, the relative viability ([8]; first compound 8 µM) was 0.887, the relative viability ([9]; first compound 0.08 µM) was 0.63 and the relative viability ([9]; first compound 0.253 µM) was 0.477. For the same cell line, the relative viability ([9]; first compound 0.8 µM) was 0.539, the relative viability ([9]; first compound 2.53 µM) was 0.524 and the relative viability ([9]; first compound 8 µM) was 0.492. It also gave a relative viability ([2]; first compound 0.08 µM) of 0.658, a relative viability ([2]; first compound 0.253 µM) of 0.525 and a relative viability ([2]; first compound 0.8 µM) of 0.662. The relative viability ([2]; first compound 2.53 µM) was 0.699, the relative viability ([2]; first compound 8 µM) was 0.648 and the relative viability ([3]; first compound 0.08 µM) was 0.91. The relative viability ([3]; first compound 0.253 µM) was 0.882, the relative viability ([3]; first compound 0.8 µM) was 1.06 and the relative viability ([3]; first compound 2.53 µM) was 1.14. It also gave a relative viability ([3]; first compound 8 µM) of 0.935, a relative viability ([4]; first compound 0.08 µM) of 0.565 and a relative viability ([4]; first compound 0.253 µM) of 0.657. For the same cell line, the relative viability ([4]; first compound 0.8 µM) was 0.581, the relative viability ([4]; first compound 2.53 µM) was 0.505 and the relative viability ([4]; first compound 8 µM) was 0.574. It also gave a relative viability ([5]; first compound 0.08 µM) of 0.665, a relative viability ([5]; first compound 0.253 µM) of 0.404 and a relative viability ([5]; first compound 0.8 µM) of 0.395. It also gave a relative viability ([5]; first compound 2.53 µM) of 0.538, a relative viability ([5]; first compound 8 µM) of 0.538 and a relative viability ([6]; first compound 0.08 µM) of 0.328. For the same cell line, the relative viability ([6]; first compound 0.253 µM) was 0.336, the relative viability ([6]; first compound 0.8 µM) was 0.313 and the relative viability ([6]; first compound 2.53 µM) was 0.301. The relative viability ([6]; first compound 8 µM) was 0.319, the relative viability ([7]; first compound 0.08 µM) was 0.606 and the relative viability ([7]; first compound 0.253 µM) was 0.54. The relative viability ([7]; first compound 0.8 µM) was 0.533, the relative viability ([7]; first compound 2.53 µM) was 0.496 and the relative viability ([7]; first compound 8 µM) was 0.521. The relative viability ([10]; first compound 0.08 µM) was 0.565, the relative viability ([10]; first compound 0.253 µM) was 0.509 and the relative viability ([10]; first compound 0.8 µM) was 0.486. For the same cell line, the relative viability ([10]; first compound 2.53 µM) was 0.404, the relative viability ([10]; first compound 8 µM) was 0.427 and the relative viability ([11]; first compound 0.08 µM) was 0.748. It also gave a relative viability ([11]; first compound 0.253 µM) of 0.779, a relative viability ([11]; first compound 0.8 µM) of 0.752 and a relative viability ([11]; first compound 2.53 µM) of 0.693. The relative viability ([11]; first compound 8 µM) was 0.711, the relative viability ([12]; first compound 0.08 µM) was 0.668 and the relative viability ([12]; first compound 0.253 µM) was 0.637. For the same cell line, the relative viability ([12]; first compound 0.8 µM) was 0.736, the relative viability ([12]; first compound 2.53 µM) was 0.649 and the relative viability ([12]; first compound 8 µM) was 0.747. For the same cell line, the relative viability ([13]; first compound 0.08 µM) was 0.792, the relative viability ([13]; first compound 0.253 µM) was 0.753 and the relative viability ([13]; first compound 0.8 µM) was 0.706. For the same cell line, the relative viability ([13]; first compound 2.53 µM) was 0.663, the relative viability ([13]; first compound 8 µM) was 0.705 and the relative viability ([14]; first compound 0.08 µM) was 0.417. The relative viability ([14]; first compound 0.253 µM) was 0.394, the relative viability ([14]; first compound 0.8 µM) was 0.347 and the relative viability ([14]; first compound 2.53 µM) was 0.429. The relative viability ([14]; first compound 8 µM) was 0.453.
